Results taken from ChEMBL document CHEMBL5096149, “Recent Update on Targeting c-MYC G-Quadruplexes by Small Molecules for Anticancer Therapeutics” (J Med Chem, 2021).
Values belong to the compound of their own block, whether it stands above or below them.

How the values were obtained:
Quadruplex DNA [1] = assay: Binding affinity to c-MYC G-quadruplex DNA (unknown origin) assessed as association rate constant by isothermal titration calorimetry method; type: nucleic-acid assay
Quadruplex DNA [2] = assay: Binding affinity to c-MYC G-quadruplex DNA (unknown origin) assessed as association constant by fluorescence spectroscopy; type: nucleic-acid assay
Quadruplex DNA [3] = assay: Binding affinity to c-MYC G-quadruplex DNA (unknown origin) assessed as association rate constant by UV-Vis spectroscopy; type: nucleic-acid assay
Quadruplex DNA [4] = assay: Thermal stabilization of c-MYC G-quadruplex (Mer22) DNA (unknown origin) assessed as change in melting temperature at 1:3 ratio by FRET melting assay; type: nucleic-acid assay
Quadruplex DNA [5] = assay: Thermal stabilization of c-MYC G-quadruplex (Mer22) DNA (unknown origin) assessed as change in melting temperature at 1:3 ratio by UV-Vis spectroscopy; type: nucleic-acid assay
Quadruplex DNA [6] = assay: Binding affinity to c-MYC G-quadruplex (Mer22) DNA (unknown origin) assessed as second order binding constant by isothermal titration calorimetry method; type: nucleic-acid assay
Quadruplex DNA [7] = assay: Binding affinity to c-MYC G-quadruplex (Mer22) DNA (unknown origin) assessed as binding rate constant by surface plasmon resonance analysis; type: nucleic-acid assay
Quadruplex DNA [8] = assay: Binding affinity to c-MYC G-quadruplex (Mer22) DNA (unknown origin) assessed as first order binding constant by isothermal titration calorimetry method; type: nucleic-acid assay
Quadruplex DNA [9] = assay: Thermal stabilization of c-MYC G-quadruplex DNA (unknown origin) assessed as change in melting temperature at 1:1 ratio in absence of K+ by FRET melting assay; type: nucleic-acid assay
Quadruplex DNA [10] = assay: Thermal stabilization of c-MYC G-quadruplex DNA (unknown origin) assessed as change in melting temperature at 1:1 ratio in presence of K+ by FRET melting assay; type: nucleic-acid assay
MCF7 = assay: Cytotoxicity against human MCF7 cells assessed as reduction in cell viability incubated for 24 hrs by MTT assay; type: functional, cell-based; conditions: MCF7, 24 h
HCT-116 = assay: Cytotoxicity against human HCT-116 cells assessed as reduction in cell viability incubated for 24 hrs by MTT assay; type: functional, cell-based; conditions: HCT-116, 24 h
[11] = Cytotoxicity against mouse C2C12 cells assessed as reduction in cell viability incubated for 24 hrs by MTT assay; type: toxicity, cell-based
HepG2 = assay: Cytotoxicity against human HepG2 cells assessed as reduction in cell viability incubated for 24 hrs by MTT assay; type: functional, cell-based; conditions: HepG2, 24 h
Quadruplex DNA [12] = assay: Thermal stabilization of c-MYC G-quadruplex DNA (unknown origin) assessed as change in melting temperature at 1:5 ratio by FRET melting assay; type: nucleic-acid assay
CA46 = assay: Cytotoxicity against human CA46 cells assessed as reduction in cell viability by MTS assay; type: functional, cell-based
Quadruplex DNA [13] = assay: Thermal stabilization of c-MYC G-quadruplex (Pu47) DNA (unknown origin) assessed as change in melting temperature at 1:5 ratio by FRET melting assay; type: nucleic-acid assay
Raji = assay: Cytotoxicity against human Raji cells assessed as reduction in cell viability by MTS assay; type: functional, cell-based
Quadruplex DNA [14] = assay: Binding affinity to c-MYC G-quadruplex DNA (unknown origin) assessed as second order binding constant by surface plasmon resonance analysis; type: nucleic-acid assay
Quadruplex DNA [15] = assay: Binding affinity to c-MYC G-quadruplex DNA (unknown origin) assessed as first order binding constant by surface plasmon resonance analysis; type: nucleic-acid assay
Quadruplex DNA [16] = assay: Binding affinity to c-MYC G-quadruplex (Pu22) DNA (unknown origin) assessed as association constant by fluorescence spectroscopy; type: nucleic-acid assay
Quadruplex DNA [17] = assay: Binding affinity to c-MYC G-quadruplex (Pu22) DNA (unknown origin) assessed as association rate constant by isothermal titration calorimetry method; type: nucleic-acid assay
Quadruplex DNA [18] = assay: Binding affinity to c-MYC G-quadruplex DNA (unknown origin) assessed as association rate constant by fluorometric titration method; type: nucleic-acid assay
Quadruplex DNA [19] = assay: Thermal stabilization of c-MYC G-quadruplex DNA (unknown origin) assessed as change in melting temperature at 1:5 ratio by circular dichroism spectroscopy; type: nucleic-acid assay
Quadruplex DNA [20] = assay: Thermal stabilization of c-MYC G-quadruplex DNA (unknown origin) assessed as change in melting temperature at 1:10 ratio by FRET melting assay; type: nucleic-acid assay
[21] = Antiproliferative activity against human Kidney epithelial cells assessed as inhibition of cell growth by XTT assay; type: toxicity, cell-based
A549 = assay: Antiproliferative activity against human A549 cells assessed as inhibition of cell growth by XTT assay; type: functional, cell-based
HeLa = assay: Antiproliferative activity against human HeLa cells assessed as inhibition of cell growth by XTT assay; type: functional, cell-based
SMMC-7721 = assay: Antitumor activity against human SMMC-7721 cells xenografted in mouse model assessed as tumor growth inhibition at 20 mg/kg,ip administrated for 3 weeks; type: functional; conditions: SMMC-7721, 504 h
Quadruplex DNA [22] = assay: Thermal stabilization of c-MYC G-quadruplex DNA (unknown origin) assessed as change in melting temperature at 1:2 ratio by circular dichroism spectroscopy; type: nucleic-acid assay
Quadruplex DNA [23] = assay: Binding affinity to c-MYC G-quadruplex (Mer22) DNA (unknown origin) assessed as association rate constant by surface plasmon resonance analysis; type: nucleic-acid assay
Quadruplex DNA [24] = assay: Thermal stabilization of c-MYC G-quadruplex DNA (unknown origin) assessed as change in melting temperature at 1:2.5 ratio by FRET melting assay; type: nucleic-acid assay
Quadruplex DNA [25] = assay: Binding affinity to c-MYC G-quadruplex DNA (unknown origin) assessed as second order binding constant by electrospray ionization mass spectrometry; type: nucleic-acid assay
Quadruplex DNA [26] = assay: Binding affinity to c-MYC G-quadruplex DNA (unknown origin) assessed as first order binding constant by electrospray ionization mass spectrometry; type: nucleic-acid assay
Quadruplex DNA [27] = assay: Thermal stabilization of c-MYC G-quadruplex DNA (unknown origin) assessed as change in melting temperature at 1:3 ratio by circular dichroism spectroscopy; type: nucleic-acid assay

SMILES: C[n+]1cccc(-c2cc3c4cc(-c5ccc[n+](C)c5)c5nc(C(F)(F)C(F)(F)C(F)(F)F)nc6c(-c7ccc[n+](C)c7)cc(c7cc(-c8ccc[n+](C)c8)c8nc(C(F)(F)C(F)(F)C(F)(F)F)nc2c8c37)c4c56)c1
Ka (Quadruplex DNA [1]): 1.3 10^7/M
Ka (Quadruplex DNA [2]): 2.31 10^7/M
Ka (Quadruplex DNA [3]): 2.38 10^7/M

SMILES: NCC1=C2CNC(=O)C3=CC(CN)=C(CNC(=O)c4cc(CN)c(o4)CNC(=O)C4=CC(CN)=C(CNC(=O)C(=C1)O2)O4)O3
ΔTm (Quadruplex DNA [4]): 18 °C
ΔTm (Quadruplex DNA [5]): 18 °C
K (Quadruplex DNA [6]): 1.86 10^6/M
K (Quadruplex DNA [7]): 2.87 10^7/M
K (Quadruplex DNA [8]): 2.4 10^7/M

SMILES: CC1=CC2(c3cc(C)ccn3)C(=O)C=C(c3ccc4ccccc4c3)N2C=C1 (centres undefined)
Ka (Quadruplex DNA [2]): 1 10^6/M

SMILES: Cc1c2ccncc2c(C)c2c1[nH]c1ccc(OCCN(C)C)cc12
IC50 (CA46): 13 µM
ΔTm (Quadruplex DNA [13]): 21 °C
IC50 (Raji): 2.6 µM
K (Quadruplex DNA [14]): 0.7 10^6/M
K (Quadruplex DNA [15]): 1 10^7/M

SMILES: CN(C)CCCNC(=O)c1csc(NC(=O)c2csc(NC(=O)c3csc(N)n3)n2)n1
IC50 [21]: > 50 µM
IC50 (A549): 3.2 µM
Ka (Quadruplex DNA [2]): 4 10^6/M
ΔTm (Quadruplex DNA [12]): 22 °C
IC50 (HeLa): 3.8 µM

SMILES: c1cc2ccc3ccc4nc3c2nc1CNCCCCCCNC4
Ka (Quadruplex DNA [18]): 1.4 10^5/M
ΔTm (Quadruplex DNA [19]): 19.3 °C
ΔTm (Quadruplex DNA [20]): 11.3 °C

SMILES: CN(C)CCCNCCC(=O)Nc1ccc(C(=O)Nc2cc(Cl)ccc2-c2nc(NCCCN(C)C)c3ccccc3n2)cc1
inhibition in vivo at 20 mg/kg (SMMC-7721): 58.2%

SMILES: CN(C)c1ccc2cc3c([n+](CCCCCCCCNC(=O)c4ccc(I)cc4)c2c1)C=CCC3
Ka (Quadruplex DNA [18]): 7.4 10^7/M
ΔTm (Quadruplex DNA [22]): 33.9 °C

SMILES: NCCC(=O)NCC1=C2CNC(=O)C3=CC(CNC(=O)CCN)=C(CNC(=O)c4cc(CNC(=O)CCN)c(o4)CNC(=O)C4=CC(CNC(=O)CCN)=C(CNC(=O)C(=C1)O2)O4)O3
ΔTm (Quadruplex DNA [4]): 23 °C
ΔTm (Quadruplex DNA [5]): 25 °C
K (Quadruplex DNA [6]): 5.2 10^5/M
K (Quadruplex DNA [8]): 7.71 10^7/M
Ka (Quadruplex DNA [23]): 4.85 10^6/M

SMILES: O=c1c2ccc3c4c(N5CCCCC5)cc5c(=O)n(CCN6CCCCC6)c(=O)c6cc7c(CCN8CCCCC8)cc8cc(c(=O)n1CCN1CCCCC1)c2c3c8c7c4c56
ΔTm (Quadruplex DNA [24]): 16.4 °C
K (Quadruplex DNA [25]): 6.3 10^5/M
K (Quadruplex DNA [26]): 1.2 10^6/M

SMILES: CN(CCCCn1cc(CCCC(=O)OC[C@H]2O[C@@H](n3cnc4c(=O)[nH]c(N)nc43)[C@@H]3OC(C)(C)O[C@@H]32)nn1)Cc1c2ccccc2c(CN(C)CCCCn2cc(CCCC(=O)OC[C@H]3O[C@@H](n4cnc5c(=O)[nH]c(N)nc54)[C@@H]4OC(C)(C)O[C@@H]43)nn2)c2ccccc12
IC50 [21]: > 50 µM
Ka (Quadruplex DNA [2]): 2.56 10^6/M
ΔTm (Quadruplex DNA [12]): 8.8 °C
IC50 (HeLa): 6.2 µM

SMILES: Nc1nc(-c2ccccc2)c2c(n1)-c1cc(OCCN3CCCC3)ccc1C2=O
ΔTm (Quadruplex DNA [19]): 7.8 °C
Ka (Quadruplex DNA [2]): 1 10^5/M

Second part, led by results:

ΔTm (Quadruplex DNA [9]): 23.5 °C
ΔTm (Quadruplex DNA [10]): 24 °C
SMILES: CN(C)CCCNC(=O)c1ccc(-n2cc(-c3ccc4[nH]c5ccc(-c6cn(-c7ccc(C(=O)NCCCN(C)C)cc7)nn6)cc5c4c3)nn2)cc1

Ka (Quadruplex DNA [2]): 3.3 10^6/M
ΔTm (Quadruplex DNA [12]): 22.7 °C
SMILES: CN(C)CCCNC(=O)c1ccc(-n2cc(-c3ccc4c(c3)c3cc(-c5cn(-c6ccc(C(=O)NCCCN(C)C)cc6)nn5)ccc3n4CCCN(C)C)nn2)cc1
IC50 (MCF7): 6.8 µM
IC50 (HCT-116): 8.2 µM
IC50 at 24 h [11]: > 45 µM
IC50 (HepG2): 4.3 µM

Ka (Quadruplex DNA [16]): 8.33 10^5/M
Ka (Quadruplex DNA [17]): 9.53 10^4/M
SMILES: C(=N\Nc1nc(Nc2ccccc2)nc(Nc2ccccc2)n1)/c1c2ccccc2cc2ccccc12

Ka (Quadruplex DNA [18]): 1.3 10^5/M
ΔTm (Quadruplex DNA [19]): 15.1 °C
ΔTm (Quadruplex DNA [20]): 17.2 °C
SMILES: c1cc2ccc3ccc4nc3c2nc1CNCCCCCCNCc1ccc2ccc3ccc(nc3c2n1)CNCCCCCCNC4

Ka (Quadruplex DNA [2]): 5.9 10^6/M
ΔTm (Quadruplex DNA [20]): 19.3 °C
SMILES: CN(C)CCCNC(=O)c1ccc(-n2cc(-c3ccc4c(c3)c3ccccc3n4-c3ccc(C(=O)NCCCN(C)C)cc3)nn2)cc1
IC50 (HCT-116): 2.1 µM

ΔTm (Quadruplex DNA [27]): 19.6 °C
Ka (Quadruplex DNA [3]): 2.41 10^5/M
SMILES: CN(C)CCn1c(NC(=O)c2ccc3ccc4ccc(C(=O)Nc5nc6ccccc6n5CCN(C)C)nc4c3n2)nc2ccccc21

Ka (Quadruplex DNA [2]): 1.3 10^5/M
ΔTm (Quadruplex DNA [12]): 15.3 °C
SMILES: C/C(=N/Nc1nc2ccccc2s1)c1ccc(-c2cccc(C(=O)NCCCN(C)C)c2)o1
